Data reported in US20200323849A1, “COMBINATIONS OF HISTONE DEACETYLASE INHIBITORS AND IMMUNOMODULATORY DRUGS” (Acetylon Pharmaceuticals, Inc., priority 2013, published 2020).

Legend:
[1] = molecular target: T1, HDAC6 (Homo sapiens, UniProt Q9UBN7); assay: HDAC enzyme assays (HDAC6 selectivity); format: biochemical
T1 construct: purchased BPS Biosciences
T1 sequence (Q9UBN7 1-1215): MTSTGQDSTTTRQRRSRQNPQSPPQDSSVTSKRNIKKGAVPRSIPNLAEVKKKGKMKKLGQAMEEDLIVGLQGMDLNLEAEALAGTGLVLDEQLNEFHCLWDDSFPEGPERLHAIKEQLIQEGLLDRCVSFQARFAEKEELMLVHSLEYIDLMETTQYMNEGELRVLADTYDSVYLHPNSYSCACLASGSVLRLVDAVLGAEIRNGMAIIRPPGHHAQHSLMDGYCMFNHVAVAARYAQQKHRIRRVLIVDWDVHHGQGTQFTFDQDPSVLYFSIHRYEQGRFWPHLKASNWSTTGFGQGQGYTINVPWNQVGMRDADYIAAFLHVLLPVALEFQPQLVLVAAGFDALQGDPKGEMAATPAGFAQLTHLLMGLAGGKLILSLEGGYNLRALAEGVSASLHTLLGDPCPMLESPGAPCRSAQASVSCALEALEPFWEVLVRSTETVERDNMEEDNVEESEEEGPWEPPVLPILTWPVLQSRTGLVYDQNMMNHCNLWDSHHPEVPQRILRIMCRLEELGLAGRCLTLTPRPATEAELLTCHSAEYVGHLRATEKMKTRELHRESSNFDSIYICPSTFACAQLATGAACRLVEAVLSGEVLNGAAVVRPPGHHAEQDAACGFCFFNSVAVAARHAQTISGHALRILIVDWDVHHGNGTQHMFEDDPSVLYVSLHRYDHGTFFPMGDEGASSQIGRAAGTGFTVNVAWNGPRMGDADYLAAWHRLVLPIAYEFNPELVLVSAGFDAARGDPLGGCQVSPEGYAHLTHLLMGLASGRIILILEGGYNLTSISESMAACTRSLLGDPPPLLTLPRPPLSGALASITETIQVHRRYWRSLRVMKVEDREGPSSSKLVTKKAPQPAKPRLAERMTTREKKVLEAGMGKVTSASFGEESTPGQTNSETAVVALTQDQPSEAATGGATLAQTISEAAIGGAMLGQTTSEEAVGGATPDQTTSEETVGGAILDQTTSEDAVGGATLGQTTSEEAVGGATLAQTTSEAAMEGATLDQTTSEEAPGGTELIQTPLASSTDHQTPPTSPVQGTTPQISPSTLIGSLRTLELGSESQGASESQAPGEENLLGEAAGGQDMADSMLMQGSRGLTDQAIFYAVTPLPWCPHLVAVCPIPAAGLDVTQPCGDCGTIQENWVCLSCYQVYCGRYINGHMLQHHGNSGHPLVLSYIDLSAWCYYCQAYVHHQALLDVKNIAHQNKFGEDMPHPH
Procedure: Compounds for testing were diluted in DMSO to 50 fold the final concentration and a ten point three fold dilution series was made. The compounds were diluted in assay buffer (50 mM HEPES, pH 7.4, 100 mM KCl, 0.001% Tween-20, 0.05% BSA, 20 μM TCEP) to 6 fold their final concentration. The HDAC enzymes (purchased from BPS Biosciences) were diluted to 1.5 fold their final concentration in assay buffer. The tripeptide substrate and trypsin at 0.05 μM final concentration were diluted in assay buffer at 6 fold their final concentration. The final enzyme concentrations used in these assays were 3.3 ng/ml (HDAC1), 0.2 ng/ml (HDAC2), 0.08 ng/ml (HDAC3) and 2 ng/ml (HDAC6). The final substrate concentrations used were 16 μM (HDAC1), 10 μM (HDAC2), 17 μM (HDAC3) and 14 μM (HDAC6). […] Enzyme and compound were incubated together at room temperature for 10 minutes. Five μl of substrate was added to each well, the plate was shaken for 60 seconds and placed into a Victor 2 microtiter plate reader. The development of fluorescence was monitored for 60 min and the linear rate of the reaction was calculated. The IC50 was determined using Graph Pad Prism by a four parameter curve fit.

[2] = Phase 1b clinical trial: PK in peripheral blood samples
Procedure: (§3) In Part A of the trial, patients were treated with escalating doses of oral Compound A in combination with a standard dose and schedule of lenalidomide and dexamethasone on days 1-5 and 8-12 of a 28 day cycle. For example, the patients in cohort 1 received 40 mg of Compound A, 15 mg of Compound E, and 40 mg of dexamethasone per day; the patients in cohort 2 received 40 mg of Compound A, 25 mg of Compound E, and 40 mg of dexamethasone per day; the patients in cohort 3 received 80 mg of Compound A, 25 mg of Compound E, and 40 mg of dexamethasone per day; the patients in cohort 4 received 160 mg of Compound A, 25 mg of Compound E, and 40 mg of dexamethasone per day; and the patients in cohort 5 received 240 mg of Compound A, 25 mg of Compound E, and 40 mg of dexamethasone per day. […] For example, the patients in cohort 6 received 160 mg of Compound A, 25 mg of Compound E, and 40 mg of dexamethasone per day; the patients in cohort 7 received 160 mg of Compound A, 25 mg of Compound E, and 40 mg of dexamethasone twice daily; and the patients in cohort 8 received 240 mg of Compound A, 25 mg of Compound E, and 40 mg of dexamethasone twice daily. Peripheral blood samples were obtained for PK and PD analysis at specified time points.

[3] = human, in vivo
Procedure: as §3

[4] = test system: H929 myeloma cells; assay: Cell cycle distribution by flow cytometry, propidium iodide (H929); format: cell-based; conditions: H929, 3 and 5 days; Compound A 2 μM, Lenalidomide 2 μM, Pomalidomide 1 μM
Procedure: (§1) H929 (FIGS. 10A & 10B) or MM.1s (FIGS. 10C & 10D) myeloma cells were exposed to drug for 3 (FIGS. 10A & 10C) and 5 (FIGS. 10B & 10D) days and cell cycle distribution was assessed by flow cytometry via incorporation of propidium iodide. The relative fraction of cells in each stage of the cell cycle (GO/G1, S, and G2/M) as well as the fraction of dead cells (Sub G1) was then estimated.

[5] = test system: acetylated tubulin (a marker of HDAC6 inhibition); assay: Phase 1b PD: acetylated tubulin in PBMC; format: in vivo, human; conditions: at ≥80 mg Compound A
Procedure: as §3

[6] = test system: MM.1s myeloma cells; assay: Cell cycle distribution by flow cytometry, propidium iodide (MM.1s); format: cell-based; conditions: 3 and 5 days, Compound A 2 μM, Lenalidomide 2 μM, Pomalidomide 1 μM
Procedure: as §1

[7] = test system: acetylated histones (a marker of class 1 HDAC inhibition); assay: Phase 1b PD: acetylated histones in PBMC; format: in vivo, human; conditions: at ≥80 mg Compound A
Procedure: as §3

[8] = test system: MM.1s myeloma cells; assay: Apoptosis by flow cytometry, Annexin V / propidium iodide (MM.1s); format: cell-based; conditions: 5 and 7 days, Compound A 2 μM, Lenalidomide 2 μM, Pomalidomide 1 μM
Procedure: (§2) H929 (FIGS. 11A & 11B) or MM.1s (FIGS. 11C & 11D) myeloma cells were exposed to drug for 5 (FIGS. 11A & 11C) and 7 (FIGS. 11B & 11D) days, and apoptosis was assessed by flow cytometry by measuring Annexin V binding and cellular permeability to propidium iodide. The relative fraction of cells that were live, in early apoptosis, in late apoptosis, or dead was then determined.

[9] = test system: H929 cells; assay: Immunoblot in H929 cells; format: cell-based
[10] = Compound A monotherapy clinical trial (phase 1a)
Procedure: as §3

[11] = test system: H929 myeloma cells; assay: Apoptosis by flow cytometry, Annexin V / propidium iodide (H929); format: cell-based; conditions: H929, 5 and 7 days; Compound A 2 μM, Lenalidomide 2 μM, Pomalidomide 1 μM
Procedure: as §2

[12] = test system: HDAC1, 2, and 3; assay: HDAC enzyme assays (HDAC1, 2, 3); format: biochemical
Procedure: Compounds for testing were diluted in DMSO to 50 fold the final concentration and a ten point three fold dilution series was made. The compounds were diluted in assay buffer (50 mM HEPES, pH 7.4, 100 mM KCl, 0.001% Tween-20, 0.05% BSA, 20 μM TCEP) to 6 fold their final concentration. The HDAC enzymes (purchased from BPS Biosciences) were diluted to 1.5 fold their final concentration in assay buffer. The tripeptide substrate and trypsin at 0.05 μM final concentration were diluted in assay buffer at 6 fold their final concentration. The final enzyme concentrations used in these assays were 3.3 ng/ml (HDAC1), 0.2 ng/ml (HDAC2), 0.08 ng/ml (HDAC3) and 2 ng/ml (HDAC6). The final substrate concentrations used were 16 μM (HDAC1), 10 μM (HDAC2), 17 μM (HDAC3) and 14 μM (HDAC6). Five μl of compound and 20 μl of enzyme were added to wells of a black, opaque 384 well plate in duplicate. Enzyme and compound were incubated together at room temperature for 10 minutes. Five μl of substrate was added to each well, the plate was shaken for 60 seconds and placed into a Victor 2 microtiter plate reader. The development of fluorescence was monitored for 60 min and the linear rate of the reaction was calculated. The IC50 was determined using Graph Pad Prism by a four parameter curve fit.

With `O=C(NO)c1cnc(NC2(c3cccc(F)c3)CCCCC2)nc1` [Compound C, 2-((1-(3-fluorophenyl)cyclohexyl)amino)-N-hydroxypyrimidine-5-carboxamide] the “selective for HDAC6 over class I HDAC's” value [1] was “more than 300 fold”.

In the case of `O=C(CCCCCCNC(=O)c1cnc(N(c2ccccc2)c2ccccc2)nc1)NO` [Compound A, 2-(diphenylamino)-N-(7-(hydroxyamino)-7-oxoheptyl) pyrimidine-5-carboxamide], the “Maximal levels of Compound A” value ([2]; at ≥80 mg, coadministered with lenalidomide and dexamethasone) is reported as at least 1 µM, the “PK for Compound A versus analogous dose levels in phase 1a monotherapy” value ([2]; coadministration of lenalidomide) is reported as “similar” and the “dose limiting toxicities (DLTs)” value [3] is reported as “not observed”. The “cell cycle distribution (G0/G1, S, G2/M)” value [4] was “small reduction”, the “increase in acetylated tubulin” value [5] was over 2 × and the “cell cycle distribution (G0/G1, S, G2/M)” value [6] was “small reduction”. The “increase in acetylated histones” value [7] was “minimal increase”, the “percentage of apoptotic cells” value [8] was “small increase in apoptosis” and the “acetylation of α-tubulin (inhibition of HDAC6)” value [9] was “hyperacetylation”. For the same compound, the “dose well-tolerated as a monotherapy (maximum dose examined)” value [10] was “up to 360 mg/day” and the “percentage of apoptotic cells” value [11] was “small increase in apoptosis”.

In the case of `O=C(CCCCCCNC(=O)c1cnc(N(c2ccccc2)c2ccccc2Cl)nc1)NO` [Compound B, 2-((2-chlorophenyl)(phenyl)amino)-N-(7-(hydroxyamino)-7-oxoheptyl)pyrimidine-5-carboxamide], the “inhibition of HDAC1, 2, and 3” value [12] is reported as “low level inhibition”.
